This is an account of results in publication PMC8448864, “Prolyl isomerase Pin1 plays an essential role in SARS-CoV-2 proliferation, indicating its possibility as a novel therapeutic target” (Scientific Reports, 2021).

What is called inhibition is the drop in the measured response relative to a control, in per cent.

Where two headings read alike, the source gives them in different places.

The test system of data set [1] is SARS-CoV-2. Description: Membrane fusion (CPE, syncytium formation) and fusion index of infected VeroE6/TMPRSS2 cells. Type of data set: cell-based. Particulars: for Membrane fusion (CPE caused by viral infection): MOI 0.01, 24 h. The procedure:
Figure 2 Pin1 inhibitor H-77 inhibits SARS-CoV-2 proliferation in a concentration-dependent manner. VeroE6/TMPRSS2 cells were pretreated with the indicated concentrations of H-77 for 2 h, and were subjected to SARS-CoV-2 infection (MOI of 0.01) followed by incubation for 24 h in the presence of the same concentrations of H-77. (A) Western blotting of cell lysates (Duplicate in the figure) with SARS-CoV-2 N, Pin1, and actin antibodies. Full-length blots are presented in Supplementary Fig. 4. (B) vRNA copies contained in 5 µL of the supernatant were quantified by RT-qPCR using authorized SARS-CoV-2 N primers (n = 3). (C) Fusion index calculated by counting numbers of cells and nuclei of infected cells after Giemsa straining. Approximately 100 nuclei and cell number per field were counted for each of five fields. Error bars indicate standard deviation. *P < 0.05, **P < 0.01, Mann–Whitney U test, compared with 0 µM (DMSO). (D) Representative images of SARS-CoV-2-infected VeroE6/TMPRSS2 cells at 24 h post-infection with the indicated concentrations of H-77.
The cells were then washed with PBS, fixed with methanol, and stained with Giemsa staining solution. The fusion index was calculated as [1-(number of cells/number of nuclei)] as described previously. Approximately 100 nuclei and cell number per field were counted, and the average fusion index of five fields was calculated.

Data set [2] deals with SARS-CoV-2. Type of data set: cell-based. As to conditions: for SARS-CoV-2 proliferation: MOI 0.01, harvested 24 h after infection.
The test system of data set [3] is SARS-CoV-2. Put plainly: microbe, parasite or virus in culture. Type of data set: cell-based. Particulars: for EC50: calculated using virus production at different drug concentrations.
For another data set, the target named is recombinant Pin1 protein (Homo sapiens, UniProt Q13526). Description: In vitro PPIase assay using recombinant Pin1 protein (method of Janowski et al., Eurofins Selcia). As to conditions: for inhibition at 2 µM: concentration 2 µM; for inhibition at 20 µM: concentration 20 µM. In kind it is biochemical.
Chain of recombinant Pin1 protein (Q13526 whole entry, species assumed): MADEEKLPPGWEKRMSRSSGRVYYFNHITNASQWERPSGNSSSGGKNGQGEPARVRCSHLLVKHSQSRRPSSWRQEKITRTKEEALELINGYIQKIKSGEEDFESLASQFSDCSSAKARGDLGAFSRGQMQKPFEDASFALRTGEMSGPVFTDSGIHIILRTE
For the next data set, the system named is FKBP. Also noted: method as in PMID 25849135. Particulars: cited from earlier work.
The test system of the next data set is Pin1. More on the design: method as in PMID 25849135. As to conditions: cited from earlier work.
In the next data set the test system is cyclophilin. More on the design: method as in PMID 25849135. Particulars: cited from earlier work.
[4] abbreviates: 10 µM from 2 h before infection, 24 h after infection.
[5] abbreviates: Severe acute respiratory syndrome coronavirus 2, VeroE6/TMPRSS2, read-out: EC50 (50% effective concentration, SARS-CoV-2 proliferation), VeroE6/TMPRSS2 cells.
Setting [6] is: Severe acute respiratory syndrome coronavirus 2, VeroE6/TMPRSS2 cells, read-out: EC50 (50% effective concentration, SARS-CoV-2 proliferation).

For the compound `O=C(Nc1ccc(OCc2ccccc2)cc1C(=O)O)c1ccc2ccccc2c1` [H-77], the figures for the “Membrane fusion (CPE caused by viral infection)” value in the data set with SARS-CoV-2 [1] (concentrations above 7.5 μM) and in the data set on SARS-CoV-2 [1] (drug concentration increased to 5 μM) were “almost absent” and “less apparent”, respectively. For the same compound, the SARS-CoV-2 proliferation entry is given as “almost completely blocked” with SARS-CoV-2 [2] (10 µM added 2 h after infection) and “weaker but still significant inhibitory effect” in the data set on SARS-CoV-2 [2] (10 µM added 6 h after infection). Besides, the “Amount of genomic RNA released from the cells (vRNA in supernatant)” value with SARS-CoV-2 [2] (setting [4]) is given as “significantly reduced”. For the same compound, the “Intracellular viral N mRNA” value with SARS-CoV-2 [2] (setting [4]) is on record as “significantly reduced”. Besides, the EC50 in the data set with SARS-CoV-2 [3] (setting [5]) is less than 5 µM; with SARS-CoV-2 [3] (read-out: EC50 (50% effective concentration, SARS-CoV-2 proliferation), VeroE6/TMPRSS2 cells), 3.2 µM. The inhibition at 2 µM on recombinant Pin1 protein was found to be 67%. Further, on recombinant Pin1 protein, the inhibition at 20 µM is 82%.

Regarding `O=C(O)[C@@H](Cc1ccc2ccccc2c1)OC(=O)n1c2ccccc2c2ccccc21` [H-175], the EC50 with SARS-CoV-2 [3] (setting [6]) is 12 µM. In addition, on recombinant Pin1 protein, the inhibition at 20 µM was 89%.

In the case of `O=C(Nc1ccc(OCc2ccccc2)cc1C(=O)O)c1cccc(Oc2ccccc2)c1` [H-363], the EC50 with SARS-CoV-2 [3] (setting [6]) was 6.3 µM. Further, the inhibition at 20 µM on recombinant Pin1 protein was determined as 82%.

In the case of `O=C(O)c1cc(NC(=O)n2c3ccccc3c3ccccc32)cc(NC(=O)n2c3ccccc3c3ccccc32)c1` [H-596], the EC50 in the data set on SARS-CoV-2 [3] (setting [6]) was 5.2 µM. Moreover, the inhibition at 1 µM on recombinant Pin1 protein (concentration 1 µM) amounted to 13%. The inhibition at 10 µM on recombinant Pin1 protein (concentration 10 µM) came to 101%.

In the case of `CC1=C(/C=C/C(C)=C/C=C/C(C)=C/C(=O)O)C(C)(C)CCC1` [ATRA, all-trans retinoic acid, reference compound], the “CPE of SARS-CoV-2” value with SARS-CoV-2 [1] (VeroE6/TMPRSS2 cells) is on record as “alleviated”. In addition, the “Activity of FKBP” value with FKBP is listed as “does not affect”. For the same compound, the EC50 in the data set on SARS-CoV-2 [3] (setting [5]) was 17.9 µM. The “SARS-CoV-2 protein and viral RNA levels” value with SARS-CoV-2 [3] (concentration-dependent, pretreated 2 h, MOI 0.01, 24 h) is “marked reductions”. Moreover, the “Activity of Pin1” value with Pin1 is listed as “inhibits”. Also, the Activity of cyclophilin entry with cyclophilin is “does not affect”.

As for `O=C1C=CC(=O)c2c(O)cccc21` [Juglone], the Cell survival result with VeroE6/TMPRSS2 cells is recorded as “unable to survive”.

Regarding `O=C(Nc1ccc(OCc2ccc3ccccc3c2)cc1C(=O)O)c1ccc2ccccc2c1` [H-371], in the data set on SARS-CoV-2 [3] (setting [6]), the EC50 is 4.2 µM. For the same compound, the inhibition at 2 µM at recombinant Pin1 protein was 80%.
